Source: patent publication US8217024B2, “Conjugated estrogen compositions, applicators, kits, and methods of making and use thereof” (Teva Women's Health, Inc., priority 2005, dated 2012)

Test: Spreadability study (125 g load on 2 g product between two petri plates)
Format: physicochemical
Conditions: 15 minutes after 125 g load on 2 g of product
Method: Spreadability studies were also performed for the formulations described in Table 4. Spreadability studies were conducted by applying a 125 g weight load on 2 g of product placed between two petri plates. The weight was placed on the petri plate over the product and the mean diameter of spreading was monitored over 1, 5, and 15 minutes. Based upon the mean spread diameter, the spread area was calculated. See, e.g., De Paula et al., Drug Dev Ind Pharm 24(3): 235-241 (1998). The results for spreadability are indicated in Table 5 for spread area at 15 minutes after the 125 g load was applied.

Structure (SMILES) | % Spread as compared to estimated human vaginal surface area (87.5 cm^2) [%] | Spread Area (cm^2)
O [Water] | 89.4 | 78.2
OCC(O)CO [Glycerin] | 80.2 | 70.2
